Source: US20160287534A1, “METHODS FOR REVERSING FIBROSIS” (The University of Connecticut, priority 2015, published 2016)

Columns and labels:
Format in all cases: cell-based
[1] = test system: LX-2 cells; test: Cytotoxicity test (Cell Counting Kit-8); details: ASTX up to 25 μM, 24 h (FIG. 1A)
Experimental: LX-2 cells were incubated with 0-200 μM ASTX for 24 h and its cytotoxicity was measured using a Cell Counting Kit-8 (Dojindo Inc., Rockville, Md.) as previously described (see Yang et al. Food Chem. Toxicol. 2011, vol. 49, pp. 1560-1564). Positive control (0.5 mM SDS) was run in parallel.

[2] = test system: LX-2 cells; test: qRT-PCR of LX-2 cells transfected with scramble control or Smad3 siRNA
Experimental: Total RNA extraction, cDNA synthesis, and qRT-PCR were conducted using a Bio-Rad CFX96 Real-Time system (Bio-Rad, Hercules, Calif.) as previously described (see Park et al. Nutr. Res. 2008, vol. 28, pp. 83-91; Rasmussen et al. J. Nutr. 2008, vol. 138, pp. 476-481). Gene sequences were obtained from the GenBank database and primers were designed using Beacon Designer (Premier Biosoft, Palo Alto, Calif.). Primer sequences are available (see supplemental table of Yang et al. Biochimica et Biophysica Acta 2015, vol. 1850, pp. 178-185).
LX-2 cells were transfected with either Silencer® Negative Control scrambled siRNA (Ambion, Invitrogen, Grand Island, N.Y.) or siGENOME SMARTpool SMAD3 siRNA (siGenome, Thermo Scientific, Logan, Utah) as described previously (see Angulo N. Engl. J. Med. 2002, vol. 346, pp. 1221-1231). Twenty four hours after the transfection, cells were pretreated with 25 μM ASTX for 12 h, after which they were stimulated by 2 ng/mL TGFβ1 for additional 12 h for subsequent qRT-PCR analysis.

[3] = test system: mouse primary HSCs; test: Activation of mouse primary qHSCs (Example 2): morphology, qRT-PCR, Western blot
Experimental: (§1) Mouse primary HSCs were isolated from C57BL/6J, nuclear erythroid 2-related factor 2 (NRF2) knockout (Nrf2−/−), and wild-type mice using a pronase/collagenase digestion method as described herein Example 1. The cells were then cultured on untreated petri dishes (BD Falcon, Franklin Lakes, N.J.), and maintained in a low-glucose DMEM medium supplemented with 10% FBS, 4 mM L-glutamine, and P/S (100 U/100 μg per mL). Human primary HSCs (Zen-Bio, Research Triangle Park, N.C.) were maintained in a low-glucose DMEM medium containing 2% FBS, 4 mM L-glutamine, 1× nonessential amino acids, 1× vitamins, and P/S (100 U/100 μg per mL). The cells were seeded on a collagen-coated plate for experiments (Sarstedt, Newton, N.C.). LX-2 cells, kindly provided by Dr. Scott Friedman at the Icahn School of Medicine at Mount Sinai (New York, N.Y.), were maintained in a low-glucose DMEM supplemented with 2% FBS, 4 mM L-glutamine, and P/S (100 U/100 μg per mL). All cells were cultured in a 37° C. humidified cell culture chamber with 5% CO2. Cell culture supplies were purchased from HyClone unless stated otherwise (Thermo Scientific, Logan, Utah).
ASTX, provided by Fuji Chemical Industry Co., Ltd. (Toyama, Japan), was prepared in DMSO as described herein in Example 1. After plated on an uncoated dish, mouse qHSCs were incubated with 25 μM ASTX during activation. aHSCs, which were prepared by culturing qHSCs on an uncoated dish for 6 d, were incubated with 25 μM ASTX for 2 or 4 more days. Also, cells were incubated with 3 μM tert-butyl hydrogen peroxide (tBHP, Thermo Scientific) for 12 h with or without 25 μM ASTX. Medium containing ASTX was replenished daily and DMSO vehicle control was always run in parallel. Human primary HSC were treated with 25 μM ASTX for 24 h, after which they were activated by 3 ng/mL of TGFβ1 (Peprotech, Rocky Hill, N.J.) for 24 h.
Total RNA extraction, cDNA synthesis, and qRT-PCR were conducted using a Bio-Rad CFX96 Real-Time system (Bio-Rad, Hercules, Calif.) as previously described (Id.). Primer sequences will be available upon request.
Whole cell lysates and human tissue protein extracts were prepared and Western blot analysis were performed as described (Id.) using antibodies against α-SMA (Sigma, St. Louis, Mo.), HDAC3 (Santa Cruz Biotechnology, Santa Cruz, Calif.), HDAC4 (Santa Cruz Biotechnology), HDAC9 (Abcam, Cambridge, Mass.; Novus Biologicals, Littleton, Colo.), Col1A1 (Sigma). β-tubulin (Santa Cruz) or glyceraldehyde 3-phosphate dehydrogenase (GAPDH) (Santa Cruz) was used as a loading control.

[4] = test system: mouse primary HSCs; test: ROS measurement in mouse primary HSCs; details: ASTX treatment for 6 d during activation (FIG. 8A)
Experimental: Mouse primary qHSCs were seeded on an uncoated black 24-well μ-Plate (Ibidi, Verona, Wis.). At day 6 of activation, cellular ROS levels were measured using dichlorofluorescin (Sigma-Aldrich, St. Louis, Mo.) as described (Id.). The cells were then fixed with 4% formaldehyde for 10 min, and incubated with 0.1% CellTag 700 stain (Li—COR, Lincoln, Nebr.), a fluorescent stain, for cell number normalization, for 1 h. Fluorescent signals were obtained by an Odyssey® CLx Infrared Imaging System (Li—COR) and a Li—COR Image Studio software. Data were expressed as relative fluorescent intensity divided by total cell stain signal.

[5] = test system: human primary HSCs; test: qRT-PCR of fibrogenic genes in human primary HSCs
Experimental: as §1
ASTX, provided by Fuji Chemical Industry Co., Ltd. (Toyama, Japan), was prepared in DMSO as described herein in Example 1. […]

[6] = ASTX added at day 4 for 2 d during HSC activation (FIG. 8B)

CC1=C(/C=C/C(C)=C/C=C/C(C)=C/C=C/C=C(C)/C=C/C=C(C)/C=C/C2=C(C)C(=O)C(O)CC2(C)C)C(C)(C)CC(O)C1=O (stereo not shown) [ASTX, astaxanthin]
cell viability [1]: more than 90%
induction of fibrogenic genes by TGFβ1 ([2]; LX-2 cells transfected with scrambled control, 25 μM ASTX 12 h (FIG. 4)): attenuated
expression of α-SMA ([2]; Smad3-deficient (siRNA) LX-2 cells): minimal inhibitory effect
increase in TGFβ1 mRNA by TGFβ1 itself ([2]; regardless of Smad3): inhibited
NOX2 mRNA [3, 6]: decreased
NOX4 mRNA [3, 6]: significantly increased
protein levels of α-SMA ([3]; ASTX for 2 days during activation (FIG. 7C)): noticeably decreased
cytoplasmic lipid droplets ([3]; day 6, cells treated with ASTX for 2-6 days (FIG. 7A)): more lipid droplets than controls
cell morphology vs control ([3]; days 2 and 4 of activation, 25 μM ASTX (FIG. 7A)): no noticeable differences
α-SMA and Col1A1 mRNA ([3]; during activation of qHSCs, 25 μM ASTX (FIG. 7B)): significantly decreased
cellular ROS levels [4]: significantly lowered
TGFβ1-mediated induction of α-SMA and Col1A1 mRNA ([5]; 25 μM ASTX 24 h, then TGFβ1 3 ng/ml 24 h (FIGS. 11A, 11B)): attenuated
basal levels of α-SMA and Col1A1 mRNA ([5]; 25 μM ASTX (FIGS. 11A, 11B)): attenuated
